*1 amine or outer side, *2 acyl side, *3 side chain or, on linkers, in order; H or OH if unused. Where a SMILES comes first, the peptide text is derived from it. Bridges are numbered along the chain shown (N, C = ends). [ ]: non-standard residue; d: D form. The star is where a group is joined. Trp(1-CH2CO) = O=C([C@H](Cc1cn(CC(=O)[*:3])c2ccccc12)N[*:1])[*:2]; Dodecyloxycarbonyl = CCCCCCCCCCCCOC(=O)*; X4 = CCc1cccc(CC)c1-c1nc(*)c2ccccc2n1; Fmoc = O=C(OCC1c2ccccc2-c2ccccc21)*; Oleoyl = CCCCCCCC/C=C\CCCCCCCC(=O)*; X2 = COc1ccc2nc(-c3ccccc3)nc(*)c2c1; Hyp = O=C(O)[C@@H]1C[C@@H](O)CN1; X1 = COC(=O)c1ccc2cnc(*)nc2c1; NMeNle = CCCC[C@H](NC)C(=O)O; X6 = CCCCCCCCCCCCCCCCOC(=O)*; NMeA = CN[C@@H](C)C(=O)O; X3 = Brc1ccc2ncnc(*)c2c1; Dab = NCC[C@H](N)C(=O)O; Dap = NC[C@H](N)C(=O)O; X5 = CC(C)(C)SC(=O)*
Biological target: T1, PD-1/PD-L1 (Homo sapiens, UniProt Q9NZQ7)
T1 construct: TVMV protease site linker (C); made in house; host or cells: HEK293T cells
T1 sequence (Q9NZQ7 18-239): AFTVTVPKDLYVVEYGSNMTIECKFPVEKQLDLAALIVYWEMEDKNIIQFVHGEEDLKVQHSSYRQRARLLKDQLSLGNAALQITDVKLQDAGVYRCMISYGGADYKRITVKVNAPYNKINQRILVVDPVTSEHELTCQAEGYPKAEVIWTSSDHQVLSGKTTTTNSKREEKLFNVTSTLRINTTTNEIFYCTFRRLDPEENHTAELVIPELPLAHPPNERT
Assay: PD-1/PD-L1 Homogenous Time-Resolved Fluorescence (HTRF) binding assay
Settings: PD-L1-His 10 nM, PD-1-Ig 20 nM; soluble extracellular domains
Text: Methods for Testing the Ability of Macrocyclic Peptides to Compete for the Binding of Pd-1 to Pd-L1 Using Homogenous Time-Resolved Fluorescence (Htrf) Binding Assays
The ability of the compounds of formula (I) to bind to PD-L1 was investigated using a PD-1/PD-L1 Homogenous Time-Resolved Fluorescence (HTRF) binding assay.
The interaction of PD-1 and PD-L1 can be assessed using soluble, purified preparations of the extracellular domains of the two proteins. The PD-1 and PD-L1 protein extracellular domains were expressed as fusion proteins with detection tags, for PD-1, the tag was the Fc portion of Immunoglobulin (PD-1-Ig) and for PD-L1 it was the 6 histidine motif (PD-L1-His). All binding studies were performed in an HTRF assay buffer consisting of dPBS supplemented with 0.1% […] bovine serum albumin and 0.05% (v/v) Tween-20. For the h/PD-L1-His binding assay, inhibitors were pre-incubated with PD-L1-His (10 nM final) for 15 m in 4 μl of assay buffer, followed by addition of PD-1-Ig (20 nM final) in 1 μl of assay buffer and further incubation for 15 m. HTRF detection was achieved using europium crypate-labeled anti-Ig (1 nM final) and allophycocyanin (APC) labeled anti-His (20 nM final). Antibodies were diluted in HTRF detection buffer and 5 μl was dispensed on top of the binding reaction. The reaction mixture was allowed to equilibrate for 30 minutes and the resulting signal (665 nm/620 nm ratio) was obtained using an EnVision fluorometer. Additional binding assays were established between the human proteins PD-1-Ig/PD-L2-His (20 & 5 nM, respectively) and CD80-His/PD-L1-Ig (100 & 10 nM, respectively).
Recombinant Proteins: Human PD-1 (25-167) with a C-terminal human Fc domain of immunoglobulin G (Ig) epitope tag [hPD-1(25-167)-3S-IG] and human PD-L1 (18-239) with a C-terminal His epitope tag [hPD-L1(18-239)-TVMV-His] were expressed in HEK293T cells and purified sequentially by Protein A affinity chromatography and size exclusion chromatography. Human PD-L2-His and CD80-His was obtained through commercial sources.
Table 1 lists the IC50 values for representative examples of this disclosure measured in the PD-1/PD-L1 Homogenous Time-Resolved Fluorescence (HTRF) binding assay.

Row | SMILES | IC50
1 | CCCCCCCCCCCCOC(=O)NC[C@@H]1NC(=O)[C@@H]2CCCN2C(=O)[C@H](CC(N)=O)NC(=O)[C@H](C)N(C)C(=O)[C@H](Cc2ccc(O)cc2)NC(=O)CSC[C@@H](C(=O)NCC(N)=O)NC(=O)[C@H](CC(C)C)NC(=O)[C@H](CCCC)N(C)C(=O)[C@H](CCCC)N(C)C(=O)[C@@H]2Cc3cn(c4ccccc34)CC(=O)NCC[C@H](NC(=O)[C@H](Cc3c[nH]c4ccccc34)NC(=O)[C@@H]3C[C@@H](O)CN3C(=O)[C@H](CC(C)C)NC1=O)C(=O)N2 [Example 1001] ({CH2CO}-Y[NMeA]NP[Dap](Dodecyloxycarbonyl)L[Hyp]W[Dab][Trp(1-CH2CO)][NMeNle][NMeNle]LCG-NH2; lactam 9-10; thioether N-14) | 280 nM
2 | CCCCCCCCCCCCCCCCOC(=O)NC[C@@H]1NC(=O)[C@@H]2CCCN2C(=O)[C@H](CC(N)=O)NC(=O)[C@H](C)N(C)C(=O)[C@H](Cc2ccc(O)cc2)NC(=O)CSC[C@@H](C(=O)NCC(N)=O)NC(=O)[C@H](CC(C)C)NC(=O)[C@H](CCCC)N(C)C(=O)[C@H](CCCC)N(C)C(=O)[C@@H]2Cc3cn(c4ccccc34)CC(=O)NCC[C@H](NC(=O)[C@H](Cc3c[nH]c4ccccc34)NC(=O)[C@@H]3C[C@@H](O)CN3C(=O)[C@H](CC(C)C)NC1=O)C(=O)N2 [Example 1002] ({CH2CO}-Y[NMeA]NP[Dap](X6)L[Hyp]W[Dab][Trp(1-CH2CO)][NMeNle][NMeNle]LCG-NH2; lactam 9-10; thioether N-14) | 2200 nM
3 | CCCCCCCC/C=C\CCCCCCCC(=O)NC[C@@H]1NC(=O)[C@@H]2CCCN2C(=O)[C@H](CC(N)=O)NC(=O)[C@H](C)N(C)C(=O)[C@H](Cc2ccc(O)cc2)NC(=O)CSC[C@@H](C(=O)NCC(N)=O)NC(=O)[C@H](CC(C)C)NC(=O)[C@H](CCCC)N(C)C(=O)[C@H](CCCC)N(C)C(=O)[C@@H]2Cc3cn(c4ccccc34)CC(=O)NCC[C@H](NC(=O)[C@H](Cc3c[nH]c4ccccc34)NC(=O)[C@@H]3C[C@@H](O)CN3C(=O)[C@H](CC(C)C)NC1=O)C(=O)N2 [Example 1003] ({CH2CO}-Y[NMeA]NP[Dap](Oleoyl)L[Hyp]W[Dab][Trp(1-CH2CO)][NMeNle][NMeNle]LCG-NH2; lactam 9-10; thioether N-14) | > 10000 nM
4 | CCCC[C@H]1C(=O)N(C)[C@@H](CCCC)C(=O)N[C@@H](CC(C)C)C(=O)N[C@H](C(=O)NCC(N)=O)CSCC(=O)N[C@@H](Cc2ccc(O)cc2)C(=O)N(C)[C@@H](C)C(=O)N[C@@H](CC(N)=O)C(=O)N2CCC[C@H]2C(=O)N[C@@H](CNC(=O)OCC2c3ccccc3-c3ccccc32)C(=O)N[C@@H](CC(C)C)C(=O)N2C[C@H](O)C[C@H]2C(=O)N[C@@H](Cc2c[nH]c3ccccc23)C(=O)N[C@H]2CCNC(=O)Cn3cc(c4ccccc43)C[C@H](NC2=O)C(=O)N1C [Example 1004] ({CH2CO}-Y[NMeA]NP[Dap](Fmoc)L[Hyp]W[Dab][Trp(1-CH2CO)][NMeNle][NMeNle]LCG-NH2; lactam 9-10; thioether N-14) | 16 nM
5 | CCCC[C@H]1C(=O)N(C)[C@@H](CCCC)C(=O)N[C@@H](CC(C)C)C(=O)N[C@H](C(=O)NCC(N)=O)CSCC(=O)N[C@@H](Cc2ccc(O)cc2)C(=O)N(C)[C@@H](C)C(=O)N[C@@H](CC(N)=O)C(=O)N2CCC[C@H]2C(=O)N[C@@H](CNC(=O)SC(C)(C)C)C(=O)N[C@@H](CC(C)C)C(=O)N2C[C@H](O)C[C@H]2C(=O)N[C@@H](Cc2c[nH]c3ccccc23)C(=O)N[C@H]2CCNC(=O)Cn3cc(c4ccccc43)C[C@H](NC2=O)C(=O)N1C [Example 1005] ({CH2CO}-Y[NMeA]NP[Dap](X5)L[Hyp]W[Dab][Trp(1-CH2CO)][NMeNle][NMeNle]LCG-NH2; lactam 9-10; thioether N-14) | 0.58 nM
6 | CCCC[C@H]1C(=O)N(C)[C@@H](CCCC)C(=O)N[C@@H](CC(C)C)C(=O)N[C@H](C(=O)NCC(N)=O)CSCC(=O)N[C@@H](Cc2ccc(O)cc2)C(=O)N(C)[C@@H](C)C(=O)N[C@@H](CC(N)=O)C(=O)N2CCC[C@H]2C(=O)N[C@@H](CNc2nc(Cl)nc3ccc(-c4ccccc4C)cc23)C(=O)N[C@@H](CC(C)C)C(=O)N2C[C@H](O)C[C@H]2C(=O)N[C@@H](Cc2c[nH]c3ccccc23)C(=O)N[C@H]2CCCC(=O)Cn3cc(c4ccccc43)C[C@H](NC2=O)C(=O)N1C [Example 1007] | 1200 nM
7 | CCCC[C@H]1C(=O)N(C)[C@@H](CCCC)C(=O)N[C@@H](CC(C)C)C(=O)N[C@H](C(=O)NCC(N)=O)CSCC(=O)N[C@@H](Cc2ccc(O)cc2)C(=O)N(C)[C@@H](C)C(=O)N[C@@H](CC(N)=O)C(=O)N2CCC[C@H]2C(=O)N[C@@H](CNc2nc(-c3c(CC)cccc3CC)nc3ccccc23)C(=O)N[C@@H](CC(C)C)C(=O)N2C[C@H](O)C[C@H]2C(=O)N[C@@H](Cc2c[nH]c3ccccc23)C(=O)N[C@H]2CCNC(=O)Cn3cc(c4ccccc43)C[C@H](NC2=O)C(=O)N1C [Example 1013] ({CH2CO}-Y[NMeA]NP[Dap](X4)L[Hyp]W[Dab][Trp(1-CH2CO)][NMeNle][NMeNle]LCG-NH2; lactam 9-10; thioether N-14) | 41 nM
8 | CCCC[C@H]1C(=O)N(C)[C@@H](CCCC)C(=O)N[C@@H](CC(C)C)C(=O)N[C@H](C(=O)NCC(N)=O)CSCC(=O)N[C@@H](Cc2ccc(O)cc2)C(=O)N(C)[C@@H](C)C(=O)N[C@@H](CC(N)=O)C(=O)N2CCC[C@H]2C(=O)N[C@@H](CNc2nc(-c3ccccc3)nc3ccc(OC)cc23)C(=O)N[C@@H](CC(C)C)C(=O)N2C[C@H](O)C[C@H]2C(=O)N[C@@H](Cc2c[nH]c3ccccc23)C(=O)N[C@H]2CCNC(=O)Cn3cc(c4ccccc43)C[C@H](NC2=O)C(=O)N1C [Example 1014] ({CH2CO}-Y[NMeA]NP[Dap](X2)L[Hyp]W[Dab][Trp(1-CH2CO)][NMeNle][NMeNle]LCG-NH2; lactam 9-10; thioether N-14) | 49 nM
9 | CCCC[C@H]1C(=O)N(C)[C@@H](CCCC)C(=O)N[C@@H](CC(C)C)C(=O)N[C@H](C(=O)NCC(N)=O)CSCC(=O)N[C@@H](Cc2ccc(O)cc2)C(=O)N(C)[C@@H](C)C(=O)N[C@@H](CC(N)=O)C(=O)N2CCC[C@H]2C(=O)N[C@@H](CNc2ncnc3ccc(Br)cc23)C(=O)N[C@@H](CC(C)C)C(=O)N2C[C@H](O)C[C@H]2C(=O)N[C@@H](Cc2c[nH]c3ccccc23)C(=O)N[C@H]2CCNC(=O)Cn3cc(c4ccccc43)C[C@H](NC2=O)C(=O)N1C [Example 1015] ({CH2CO}-Y[NMeA]NP[Dap](X3)L[Hyp]W[Dab][Trp(1-CH2CO)][NMeNle][NMeNle]LCG-NH2; lactam 9-10; thioether N-14) | 97 nM
10 | CCCC[C@H]1C(=O)N(C)[C@@H](CCCC)C(=O)N[C@@H](CC(C)C)C(=O)N[C@H](C(=O)NCC(N)=O)CSCC(=O)N[C@@H](Cc2ccc(O)cc2)C(=O)N(C)[C@@H](C)C(=O)N[C@@H](CC(N)=O)C(=O)N2CCC[C@H]2C(=O)N[C@@H](CNc2ncc3ccc(C(=O)OC)cc3n2)C(=O)N[C@@H](CC(C)C)C(=O)N2C[C@H](O)C[C@H]2C(=O)N[C@@H](Cc2c[nH]c3ccccc23)C(=O)N[C@H]2CCNC(=O)Cn3cc(c4ccccc43)C[C@H](NC2=O)C(=O)N1C [Example 1016] ({CH2CO}-Y[NMeA]NP[Dap](X1)L[Hyp]W[Dab][Trp(1-CH2CO)][NMeNle][NMeNle]LCG-NH2; lactam 9-10; thioether N-14) | 120 nM
